{"source": "patent US20110152166A1", "about": "“METHOD OF MODULATION OF PROTEIN PHOSPHORYLATION-DEPENDENT CONFORMATIONAL TRANSITIONS WITH LOW MOLECULAR WEIGHT COMPOUNDS” (priority 2006, published 2011)", "key": {"GST-PDK1 [Phe157Leu]": {"biological_target": "T1, GST-PDK1 [Phe157Leu] (Homo sapiens, UniProt O15530, F157L)", "T1 construct": "different protein constructs, comprising the full length protein or the catalytic domain alone; made in house; host or cells: HEK293 cells (pEBG-2T-PDK1 mutant)", "T1 sequence (O15530 whole entry F157L, the tested form may be a part)": "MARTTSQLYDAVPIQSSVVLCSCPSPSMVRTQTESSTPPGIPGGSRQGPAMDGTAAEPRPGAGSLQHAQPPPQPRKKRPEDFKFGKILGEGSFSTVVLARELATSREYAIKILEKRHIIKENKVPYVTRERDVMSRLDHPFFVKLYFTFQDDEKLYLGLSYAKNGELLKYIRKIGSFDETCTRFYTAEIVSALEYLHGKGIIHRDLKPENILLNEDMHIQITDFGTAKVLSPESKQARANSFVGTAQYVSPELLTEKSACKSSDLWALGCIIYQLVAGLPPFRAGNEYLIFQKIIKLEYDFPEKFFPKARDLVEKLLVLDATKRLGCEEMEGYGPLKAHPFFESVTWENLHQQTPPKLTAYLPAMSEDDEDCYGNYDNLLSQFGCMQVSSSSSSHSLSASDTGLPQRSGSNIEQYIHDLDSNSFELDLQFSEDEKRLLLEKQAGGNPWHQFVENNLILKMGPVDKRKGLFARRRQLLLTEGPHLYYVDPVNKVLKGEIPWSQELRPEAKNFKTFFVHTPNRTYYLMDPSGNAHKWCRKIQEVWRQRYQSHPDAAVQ", "experiment": "PDK1 activity assay with T308tide", "type": "biochemical"}, "GST-S6K11-365": {"biological_target": "GST-S6K11-365 (Rattus norvegicus, UniProt P67999)", "sequence (P67999 24-388)": "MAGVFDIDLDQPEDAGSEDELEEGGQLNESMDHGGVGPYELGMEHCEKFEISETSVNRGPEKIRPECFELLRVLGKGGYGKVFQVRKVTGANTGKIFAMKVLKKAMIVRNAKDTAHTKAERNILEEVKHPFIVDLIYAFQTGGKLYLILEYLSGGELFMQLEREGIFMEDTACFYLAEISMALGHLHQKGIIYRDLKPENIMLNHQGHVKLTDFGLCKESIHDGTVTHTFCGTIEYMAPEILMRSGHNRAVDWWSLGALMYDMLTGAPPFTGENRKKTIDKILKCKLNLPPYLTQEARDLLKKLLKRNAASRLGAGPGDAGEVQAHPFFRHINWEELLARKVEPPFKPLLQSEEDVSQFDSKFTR", "experiment": "Surface plasmon resonance, S6K1 binding to tail peptides", "parameters": "made in house; host or cells: COS cells (printed 'COST'), co-transfected with pCMV5-myc-PDK1", "method": "FIG. 13. The tail phosphate synergistically enhances the ability of the HM phosphate to activate S6K, dependent on the tail phosphate-binding site. (A) The kinase activity of purified kinase domain of S6K1 (S6K11-364), pre-phosphorylated by PDK1 in the activation loop, was determined in the presence of increasing concentrations of synthetic S6K1 tail peptide (residues 366-395) that was either non-phosphorylated (S371/T389), phosphorylated at Ser371 (pS371/T389) or Thr389 (5371/pT389) or phosphorylated at both sites (pS371/pT389). (B) The kinase activity of S6K11-364 and S6K11-364K144N, either pre-phosphorylated or not by PDK1, was determined in the absence or presence of 90 μM S371/pT389 or pS371/pT389. (C) pS371/pT389 S6K1 tail peptide was biotinylated and used to coat streptavidin Sensor Chips. The chips were thereafter analyzed for binding to purified GST-S6K11-365 or GST-56K11-365K144N. (A-C) Experiments were repeated at least 3 times and activity data (expressed as percent) are means±SD.\nSixty 146 cm^2 dishes with COST cells were co-transfected with pEBG-2T-S6K1-365 and pCMV5-myc-PDK1 (ratio 3:1) using calcium phosphate precipitation or with pEBG-2T-PKCζ and pCMV5-myc-PDK1 (ratio 3:1) using Fugene HD according to the manufacturers Instructions. Two days after transfection, the cells were harvested in lysis buffer as described above. […]"}}, "note": "Ends that are not written are not given here.", "data": [{"substance": "REPRILSEEEQEMFRDFDYIADWC [PIFtide, reference compound]", "values": [{"measurement": "AC50", "setting": "GST-PDK1 [Phe157Leu]", "value": "320 ± 190", "unit": "nM"}, {"measurement": "Max. activity", "setting": "GST-PDK1 [Phe157Leu]", "value": "1.4 ± 0.14", "unit": "U/mg"}]}, {"substance": "S371/T389: synthetic S6K1 tail peptide (residues 366-395), non-phosphorylated", "values": [{"measurement": "specific binding of S6K11-365 or S6K11-365K144N (in words)", "setting": "GST-S6K11-365", "value": "No specific binding"}]}]}
